# Reference: PubChem BioAssay (NCI)
#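 These data come from cells grown in 96-well plates and exposed to compound for 48 hours at five concentrations. GI50 marks 50% less growth. TGI: concentration producing complete growth inhibition.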
# Assays:
# Experiment in all cases: inhibition of tumour cell growth, NCI panel, 48 h
# CAKI-1 renal = system: CAKI-1 renal
# NCI-H460 lung = system: NCI-H460 lung
# SNB-75 CNS = system: SNB-75 CNS
# COLO 205 colon = system: COLO 205 colon
# RXF 393 renal = system: RXF 393 renal
# NCI/ADR-RES ovarian = system: NCI/ADR-RES ovarian
# NCI-H226 lung = system: NCI-H226 lung
# UO-31 renal = system: UO-31 renal
# CCRF-CEM leukemia = system: CCRF-CEM leukemia
# HCT-116 colon = system: HCT-116 colon
# ACHN renal = system: ACHN renal
# A549 NSCLC = system: A549 NSCLC
# T-47D breast = system: T-47D breast
# HOP-92 NSCLC = system: HOP-92 NSCLC
# MALME-3M melanoma = system: MALME-3M melanoma
# OVCAR-8 ovarian = system: OVCAR-8 ovarian
# SW-620 colon = system: SW-620 colon
# SR leukemia = system: SR leukemia
# HT29 colon = system: HT29 colon
# HCC-2998 colon = system: HCC-2998 colon
# SK-MEL-5 melanoma = system: SK-MEL-5 melanoma
# LOX IMVI melanoma = system: LOX IMVI melanoma
# HS 578T breast = system: HS 578T breast
# SN12C renal = system: SN12C renal
# HL-60(TB) leukemia = system: HL-60(TB) leukemia
# MDA-MB-231 breast = system: MDA-MB-231 breast
# SK-OV-3 ovarian = system: SK-OV-3 ovarian
# OVCAR-4 ovarian = system: OVCAR-4 ovarian
# MDA-MB-435 = system: MDA-MB-435
smiles,measurement,setting,value
CN1CCN(c2ccc(Nc3nc(NCCNS(=O)(=O)c4ccc5ccccc5c4)c4sccc4n3)cc2)CC1,GI50,CAKI-1 renal,3.87 µM
same,TGI,CAKI-1 renal,15.2 µM
same,GI50,NCI-H460 lung,12.1 µM
same,TGI,NCI-H460 lung,27.2 µM
same,GI50,SNB-75 CNS,11.6 µM
same,TGI,SNB-75 CNS,24.2 µM
same,GI50,COLO 205 colon,2.22 µM
same,TGI,COLO 205 colon,4.99 µM
same,GI50,RXF 393 renal,2.33 µM
same,TGI,RXF 393 renal,6.58 µM
same,GI50,NCI/ADR-RES ovarian,14.8 µM
same,TGI,NCI/ADR-RES ovarian,38.3 µM
same,GI50,NCI-H226 lung,14.2 µM
same,TGI,NCI-H226 lung,28.3 µM
same,GI50,UO-31 renal,12.4 µM
same,TGI,UO-31 renal,25.5 µM
same,GI50,CCRF-CEM leukemia,3.52 µM
same,TGI,CCRF-CEM leukemia,13.9 µM
same,GI50,HCT-116 colon,2.21 µM
same,TGI,HCT-116 colon,5.64 µM
same,GI50,ACHN renal,8.51 µM
same,TGI,ACHN renal,20.7 µM
same,GI50,A549 NSCLC,9.03 µM
same,TGI,A549 NSCLC,26.8 µM
same,GI50,T-47D breast,3.71 µM
same,TGI,T-47D breast,16.9 µM
same,GI50,HOP-92 NSCLC,3.31 µM
same,TGI,HOP-92 NSCLC,16.1 µM
same,GI50,MALME-3M melanoma,1.8 µM
same,TGI,MALME-3M melanoma,3.28 µM
same,GI50,OVCAR-8 ovarian,6.65 µM
same,TGI,OVCAR-8 ovarian,19.9 µM
same,GI50,SW-620 colon,6.41 µM
same,TGI,SW-620 colon,21.8 µM
same,GI50,SR leukemia,2.57 µM
same,TGI,SR leukemia,7.42 µM
same,GI50,HT29 colon,3.31 µM
same,TGI,HT29 colon,12.3 µM
same,GI50,HCC-2998 colon,3.34 µM
same,TGI,HCC-2998 colon,12.5 µM
same,GI50,SK-MEL-5 melanoma,3.27 µM
same,TGI,SK-MEL-5 melanoma,11.3 µM
same,GI50,LOX IMVI melanoma,1.75 µM
same,TGI,LOX IMVI melanoma,3.36 µM
same,GI50,HS 578T breast,14.1 µM
same,TGI,HS 578T breast,46.8 µM
same,GI50,SN12C renal,13.1 µM
same,TGI,SN12C renal,26.3 µM
same,GI50,HL-60(TB) leukemia,1.99 µM
same,TGI,HL-60(TB) leukemia,4.04 µM
same,GI50,MDA-MB-231 breast,3.87 µM
same,TGI,MDA-MB-231 breast,14.8 µM
same,GI50,SK-OV-3 ovarian,19.4 µM
same,TGI,SK-OV-3 ovarian,35.6 µM
same,GI50,OVCAR-4 ovarian,10.3 µM
same,TGI,OVCAR-4 ovarian,28.2 µM
same,GI50,MDA-MB-435,3.34 µM
same,TGI,MDA-MB-435,11.8 µM
